What was measured:
Settings in all cases: 48 h
SEM cells [1] = assay: AUC of viability dose-response curve (% viability x log10 dose units); higher = less sensitive
Procedure, shortened: (§1)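 Over 48 h at 37°C, leukemia cells in 1536-well plates (500 or 1000 cells/well), adapted to each medium, received library compounds in DMSO at 11 threefold doses from 47 μM to 0.79 nM. CellTiter-Glo One luminescence, normalised per plate to DMSO and cell-free wells, was fitted by a four-parameter log-logistic function of log10 dose. The area under the curve was then integrated by trapezoidal rule, after scaling curves above full viability and removing those that failed quality control.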

NOMO1 [2] = assay: as above
Procedure, shortened: as §1

P12-Ichikawa [3] = assay: as above
Procedure, shortened: as §1

SEM cells [4] = assay: cell viability relative to DMSO control; higher = less cytotoxic
Procedure, shortened: (§2)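 Leukemia cells (NOMO1 or SEM, 500 cells/well; P12-Ichikawa, 1000 cells/well) were seeded in 5 μl in 1536-well plates after at least four passages of adaptation to each medium. They received library compounds in DMSO by pin dosing, 11 threefold points from 47 μM to 0.79 nM. Luminescence with CellTiter-Glo One was read after 48 h at 37°C. Viability is stated per plate relative to DMSO wells, with cell-free wells as background.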

NOMO1 [5] = assay: as above
Procedure, shortened: as §2

P12-Ichikawa [6] = assay: as above
Procedure, shortened: as §2

Cc1ccc([S+](=O)([O-])NC(=O)NN2CC3CCCC3C2)cc1 (centres undefined)
AUC of viability dose-response curve
Settings | NOMO1 [2] | P12-Ichikawa [3] | SEM cells [1]
HPLM + 10% dialyzed FBS | 433 | 388 | 369
RPMI 5 mM glucose + 10% FBS | 436 | 378 | 334
RPMI 5 mM glucose + 10% dialyzed FBS | 439 | 371 | 337

cell viability [%]
Settings | NOMO1 [5] | P12-Ichikawa [6] | SEM cells [4]
HPLM + 10% dialyzed FBS, 0.000781 µM | 108 | 107 | 57.6
HPLM + 10% dialyzed FBS, 0.00234 µM | 127 | 110 | 102
HPLM + 10% dialyzed FBS, 0.00702 µM | 114 | 110 | 89.1
HPLM + 10% dialyzed FBS, 0.0211 µM | 104 | 114 | 106
HPLM + 10% dialyzed FBS, 0.0632 µM | 134 | 112 | 101
HPLM + 10% dialyzed FBS, 0.19 µM | 113 | 106 | 100
HPLM + 10% dialyzed FBS, 0.569 µM | 96.6 | 100 | 96.9
HPLM + 10% dialyzed FBS, 1.71 µM | 104 | 80.8 | 86.1
HPLM + 10% dialyzed FBS, 5.12 µM | 111 | 66.4 | 58.7
HPLM + 10% dialyzed FBS, 15.4 µM | 53.4 | 44.5 | 18.7
HPLM + 10% dialyzed FBS, 46.1 µM | 30.3 | 22.7 | 9.78
RPMI 5 mM glucose + 10% FBS, 0.000781 µM | 98 | 110 | 55.2
RPMI 5 mM glucose + 10% FBS, 0.00234 µM | 104 | 108 | 93.6
RPMI 5 mM glucose + 10% FBS, 0.00702 µM | 105 | 103 | 77.9
RPMI 5 mM glucose + 10% FBS, 0.0211 µM | 104 | 102 | 94.5
RPMI 5 mM glucose + 10% FBS, 0.0632 µM | 106 | 113 | 106
RPMI 5 mM glucose + 10% FBS, 0.19 µM | 99.5 | 108 | 94.4
RPMI 5 mM glucose + 10% FBS, 0.569 µM | 113 | 97.7 | 80.8
RPMI 5 mM glucose + 10% FBS, 1.71 µM | 102 | 70.5 | 76.6
RPMI 5 mM glucose + 10% FBS, 5.12 µM | 108 | 57.3 | 43.7
RPMI 5 mM glucose + 10% FBS, 15.4 µM | 55.6 | 34.7 | 14.9
RPMI 5 mM glucose + 10% FBS, 46.1 µM | 24.1 | 20.1 | 9.35
RPMI 5 mM glucose + 10% dialyzed FBS, 0.000781 µM | 96.4 | 107 | 50.2
RPMI 5 mM glucose + 10% dialyzed FBS, 0.00234 µM | 118 | 109 | 98.7
RPMI 5 mM glucose + 10% dialyzed FBS, 0.00702 µM | 101 | 116 | 84.5
RPMI 5 mM glucose + 10% dialyzed FBS, 0.0211 µM | 105 | 106 | 96.6
RPMI 5 mM glucose + 10% dialyzed FBS, 0.0632 µM | 106 | 112 | 109
RPMI 5 mM glucose + 10% dialyzed FBS, 0.19 µM | 110 | 102 | 87.8
RPMI 5 mM glucose + 10% dialyzed FBS, 0.569 µM | 103 | 93.4 | 84.7
RPMI 5 mM glucose + 10% dialyzed FBS, 1.71 µM | 106 | 72.4 | 67.7
RPMI 5 mM glucose + 10% dialyzed FBS, 5.12 µM | 110 | 51.4 | 39.3
RPMI 5 mM glucose + 10% dialyzed FBS, 15.4 µM | 57.3 | 36.3 | 26.8
RPMI 5 mM glucose + 10% dialyzed FBS, 46.1 µM | 36 | 23.9 | 13.1

O=C(O)C(=O)Nc1cccc(-c2nnn[nH]2)c1
AUC of viability dose-response curve
Settings | NOMO1 [2] | P12-Ichikawa [3] | SEM cells [1]
HPLM + 10% dialyzed FBS | 463 | 455 | 422
RPMI 5 mM glucose + 10% FBS | 457 | 477 | 451
RPMI 5 mM glucose + 10% dialyzed FBS | 452 | 470 | 462

cell viability [%]
Settings | NOMO1 [5] | P12-Ichikawa [6] | SEM cells [4]
HPLM + 10% dialyzed FBS, 0.000781 µM | 96.8 | 101 | 90.2
HPLM + 10% dialyzed FBS, 0.00234 µM | 117 | 94.9 | 98.2
HPLM + 10% dialyzed FBS, 0.00702 µM | 117 | 103 | 108
HPLM + 10% dialyzed FBS, 0.0211 µM | 119 | 108 | 112
HPLM + 10% dialyzed FBS, 0.0632 µM | 114 | 108 | 109
HPLM + 10% dialyzed FBS, 0.19 µM | 108 | 106 | 116
HPLM + 10% dialyzed FBS, 0.569 µM | 130 | 105 | 76.4
HPLM + 10% dialyzed FBS, 1.71 µM | 114 | 106 | 122
HPLM + 10% dialyzed FBS, 5.12 µM | 123 | 112 | 132
HPLM + 10% dialyzed FBS, 15.4 µM | 106 | 112 | 128
HPLM + 10% dialyzed FBS, 46.1 µM | 116 | 111 | 119
RPMI 5 mM glucose + 10% FBS, 0.000781 µM | 94.3 | 109 | 91.3
RPMI 5 mM glucose + 10% FBS, 0.00234 µM | 102 | 111 | 112
RPMI 5 mM glucose + 10% FBS, 0.00702 µM | 109 | 106 | 114
RPMI 5 mM glucose + 10% FBS, 0.0211 µM | 95.8 | 112 | 104
RPMI 5 mM glucose + 10% FBS, 0.0632 µM | 111 | 126 | 106
RPMI 5 mM glucose + 10% FBS, 0.19 µM | 108 | 107 | 106
RPMI 5 mM glucose + 10% FBS, 0.569 µM | 97.3 | 113 | 75.5
RPMI 5 mM glucose + 10% FBS, 1.71 µM | 106 | 114 | 119
RPMI 5 mM glucose + 10% FBS, 5.12 µM | 108 | 108 | 120
RPMI 5 mM glucose + 10% FBS, 15.4 µM | 120 | 116 | 110
RPMI 5 mM glucose + 10% FBS, 46.1 µM | 99.2 | 107 | 117
RPMI 5 mM glucose + 10% dialyzed FBS, 0.000781 µM | 109 | 100 | 98.8
RPMI 5 mM glucose + 10% dialyzed FBS, 0.00234 µM | 103 | 105 | 101
RPMI 5 mM glucose + 10% dialyzed FBS, 0.00702 µM | 111 | 106 | 111
RPMI 5 mM glucose + 10% dialyzed FBS, 0.0211 µM | 99.2 | 108 | 116
RPMI 5 mM glucose + 10% dialyzed FBS, 0.0632 µM | 112 | 107 | 119
RPMI 5 mM glucose + 10% dialyzed FBS, 0.19 µM | 106 | 106 | 105
RPMI 5 mM glucose + 10% dialyzed FBS, 0.569 µM | 126 | 100 | 81.5
RPMI 5 mM glucose + 10% dialyzed FBS, 1.71 µM | 104 | 105 | 119
RPMI 5 mM glucose + 10% dialyzed FBS, 5.12 µM | 113 | 98.4 | 132
RPMI 5 mM glucose + 10% dialyzed FBS, 15.4 µM | 113 | 105 | 107
RPMI 5 mM glucose + 10% dialyzed FBS, 46.1 µM | 120 | 102 | 102

O=C1C(CCC(O)c2ccc(F)cc2)C(c2ccc(O)cc2)N1c1ccc(F)cc1 (centres undefined)
AUC of viability dose-response curve
Settings | NOMO1 [2] | P12-Ichikawa [3] | SEM cells [1]
HPLM + 10% dialyzed FBS | 461 | 472 | 477
RPMI 5 mM glucose + 10% FBS | 435 | 472 | 470
RPMI 5 mM glucose + 10% dialyzed FBS | 469 | 465 | 466

cell viability [%]
Settings | NOMO1 [5] | P12-Ichikawa [6] | SEM cells [4]
HPLM + 10% dialyzed FBS, 0.000781 µM | 111 | 108 | 107
HPLM + 10% dialyzed FBS, 0.00234 µM | 104 | 112 | 97.3
HPLM + 10% dialyzed FBS, 0.00702 µM | 123 | 114 | 110
HPLM + 10% dialyzed FBS, 0.0211 µM | 124 | 116 | 112
HPLM + 10% dialyzed FBS, 0.0632 µM | 113 | 119 | 103
HPLM + 10% dialyzed FBS, 0.19 µM | 132 | 124 | 109
HPLM + 10% dialyzed FBS, 0.569 µM | 133 | 117 | 108
HPLM + 10% dialyzed FBS, 1.71 µM | 132 | 117 | 101
HPLM + 10% dialyzed FBS, 5.12 µM | 146 | 117 | 113
HPLM + 10% dialyzed FBS, 15.4 µM | 132 | 120 | 102
HPLM + 10% dialyzed FBS, 46.1 µM | 47.5 | 106 | 104
RPMI 5 mM glucose + 10% FBS, 0.000781 µM | 114 | 114 | 81.4
RPMI 5 mM glucose + 10% FBS, 0.00234 µM | 114 | 117 | 98.2
RPMI 5 mM glucose + 10% FBS, 0.00702 µM | 108 | 123 | 96
RPMI 5 mM glucose + 10% FBS, 0.0211 µM | 106 | 118 | 111
RPMI 5 mM glucose + 10% FBS, 0.0632 µM | 110 | 122 | 92.9
RPMI 5 mM glucose + 10% FBS, 0.19 µM | 120 | 121 | 100
RPMI 5 mM glucose + 10% FBS, 0.569 µM | 112 | 126 | 101
RPMI 5 mM glucose + 10% FBS, 1.71 µM | 122 | 121 | 97.1
RPMI 5 mM glucose + 10% FBS, 5.12 µM | 122 | 127 | 114
RPMI 5 mM glucose + 10% FBS, 15.4 µM | 130 | 121 | 98.8
RPMI 5 mM glucose + 10% FBS, 46.1 µM | 127 | 117 | 101
RPMI 5 mM glucose + 10% dialyzed FBS, 0.000781 µM | 101 | 101 | 106
RPMI 5 mM glucose + 10% dialyzed FBS, 0.00234 µM | 98.9 | 106 | 113
RPMI 5 mM glucose + 10% dialyzed FBS, 0.00702 µM | 107 | 105 | 121
RPMI 5 mM glucose + 10% dialyzed FBS, 0.0211 µM | 113 | 117 | 121
RPMI 5 mM glucose + 10% dialyzed FBS, 0.0632 µM | 92.7 | 118 | 128
RPMI 5 mM glucose + 10% dialyzed FBS, 0.19 µM | 118 | 111 | 113
RPMI 5 mM glucose + 10% dialyzed FBS, 0.569 µM | 111 | 120 | 115
RPMI 5 mM glucose + 10% dialyzed FBS, 1.71 µM | 103 | 116 | 121
RPMI 5 mM glucose + 10% dialyzed FBS, 5.12 µM | 117 | 124 | 113
RPMI 5 mM glucose + 10% dialyzed FBS, 15.4 µM | 106 | 114 | 108
RPMI 5 mM glucose + 10% dialyzed FBS, 46.1 µM | 103 | 106 | 108

Reference: the supplement of paper PMC11451515
